According to patent publication US20080214658A1, “Composition Comprising Isoorientin for Suppressing Histamine” (UNIGEN, INC., priority 2005, published 2008):

System: guinea pig lung mast cells
Assay: Histamine release from passively sensitized (anti-OVA antibody) lung mast cells activated by OVA
Type: cell-based
Conditions: for Histamine (%) (amount of histamine released as percentage of the total histamine content) / inhibition % of histamine release: 4 × 10^5 mast cells, added 5 min before 1.0 μg/ml OVA challenge; for inhibition % of histamine release: vs OVA alone
Description: In each enzyme treatment, the lung tissues were filtered with nylon mesh and metal mesh (100 μm), and centrifuged (called as monodispersed mast cells). Pellets were suspended in 16 ml of buffer (TG buffer) containing Ca^2+, Mg^2+-free, and 0.1% gelatin, loaded to rough Percoll ([…] density), and centrifuged at 1,400 rpm for 25 minutes to give pellets. The cells were suspended again in 8 ml of TG buffer, loaded to discontinuous Percoll ([…] density), and centrifuged again at 1400 rpm for 25 minutes to afford various kinds of cell layers. Among them, mast cells were mainly present in 3rd or 4th layer, and so cells obtained from these layers were washed with TGCM buffer twice. […] Mast cells (4×10^5 cells) were treated with guinea pig IgG1 antibody (anti-OVA 1 ml/10^6 cells), reacted at 37° C. for 45 minutes, and then washed with TGCM buffer to remove anti-OVA antibody which was not bound to mast cells membrane. The cells were suspended in 1 ml of TGCM buffer, and treated with drug (testing substance) at each concentration for 5 minutes. The suspension was […] with 1.0 μg/ml OVA (ovalbumin), reacted for 10 minutes, cooled at ice, and centrifuged. After the centrifuge, histamine in supernatant was measured. […] The amount of histamine contained in each sample was calculated as percentage against the amount of histamine contained in total cells used, as follows. [formula]

## O=c1cc(-c2ccc(O)c(O)c2)oc2cc(O)c([C@@H]3O[C@H](CO)[C@@H](O)[C@H](O)[C@H]3O)c(O)c12 [Isoorientin, isoorientin]
Cavia porcellus, Mast cell, guinea pig lung mast cells, anti-OVA sensitized, OVA challenge, read-out: IC50 value, inhibition of histamine release in mast cells
  IC50: 30 µg/mL
Sample 1.25 μg
  Histamine (%) (amount of histamine released as percentage of the total histamine content): 27.9 ± 2.62%
  inhibition % of histamine release: 14%
Sample 2.5 μg
  Histamine (%) (amount of histamine released as percentage of the total histamine content): 25.6 ± 1.49%
  inhibition % of histamine release: 21.3%
Sample 5 μg
  Histamine (%) (amount of histamine released as percentage of the total histamine content): 21.9 ± 2.01%
  inhibition % of histamine release: 32.6%
Sample 10 μg
  Histamine (%) (amount of histamine released as percentage of the total histamine content): 17.2 ± 1.07%
  inhibition % of histamine release: 47.2%
